Earlier results as cited in patent publication US9597322B2, “Otamixaban for use in the treatment of non-ST elevation acute coronary syndrome in patients planned to undergo coronary artery bypass grafting” (SANOFI, priority 2012, dated 2017).
Read-outs that look alike come from different tables or passages of the source.

Legend:
factor Xa = biological target: T1, factor Xa (Homo sapiens, UniProt P00742); details: patients with stable coronary artery disease on usual comedication, some with mild renal impairment; Hinder et al. 2006; cited from earlier work
T1 construct: host or cells: blood of patients (endogenous)

free factor Xa = free factor Xa (Homo sapiens, UniProt P00742); details: direct, independent of antithrombin III; cited from earlier work
[1] = system: prothrombin fragments 1+2; details: highest dose regimen; Cohen et al. 2007; cited from earlier work
[2] = biological target: factor Xa assembled in the prothrombinase complex (Factor Xa, Factor Va, calcium and phospholipid) (Homo sapiens, UniProt P00742); details: direct, independent of antithrombin III; cited from earlier work
thrombosis [3] = details: porcine; cited from earlier work
thrombosis [4] = details: canine; cited from earlier work
thrombosis [5] = details: rodent; cited from earlier work

free factor Xa, sequence (P00742 235-488 limits assumed): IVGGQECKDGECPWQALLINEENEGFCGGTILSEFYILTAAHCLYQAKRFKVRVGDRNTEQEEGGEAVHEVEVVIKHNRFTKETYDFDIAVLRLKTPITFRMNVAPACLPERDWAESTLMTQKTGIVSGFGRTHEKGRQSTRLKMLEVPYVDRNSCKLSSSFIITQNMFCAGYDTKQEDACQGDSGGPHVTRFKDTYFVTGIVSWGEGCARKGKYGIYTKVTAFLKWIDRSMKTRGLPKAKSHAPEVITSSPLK
free factor Xa, sequence (P00742 41-179 partner limits assumed): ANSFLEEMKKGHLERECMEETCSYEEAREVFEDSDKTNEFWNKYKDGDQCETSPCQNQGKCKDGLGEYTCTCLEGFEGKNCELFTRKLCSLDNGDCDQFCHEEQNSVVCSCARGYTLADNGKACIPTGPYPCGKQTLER
T1 sequence (P00742 235-488 limits assumed): as the sequence (P00742 235-488 limits assumed) above
T1 sequence (P00742 41-179 partner limits assumed): as the sequence (P00742 41-179 partner limits assumed) above
factor Xa assembled in the prothrombinase complex (Factor Xa, Factor Va, calcium and phospholipid), sequence (P00742 235-488 limits assumed): as the sequence (P00742 235-488 limits assumed) above
factor Xa assembled in the prothrombinase complex (Factor Xa, Factor Va, calcium and phospholipid), sequence (P00742 41-179 partner limits assumed): as the sequence (P00742 41-179 partner limits assumed) above
factor Xa assembled in the prothrombinase complex (Factor Xa, Factor Va, calcium and phospholipid), sequence (P12259 29-737 partner limits assumed): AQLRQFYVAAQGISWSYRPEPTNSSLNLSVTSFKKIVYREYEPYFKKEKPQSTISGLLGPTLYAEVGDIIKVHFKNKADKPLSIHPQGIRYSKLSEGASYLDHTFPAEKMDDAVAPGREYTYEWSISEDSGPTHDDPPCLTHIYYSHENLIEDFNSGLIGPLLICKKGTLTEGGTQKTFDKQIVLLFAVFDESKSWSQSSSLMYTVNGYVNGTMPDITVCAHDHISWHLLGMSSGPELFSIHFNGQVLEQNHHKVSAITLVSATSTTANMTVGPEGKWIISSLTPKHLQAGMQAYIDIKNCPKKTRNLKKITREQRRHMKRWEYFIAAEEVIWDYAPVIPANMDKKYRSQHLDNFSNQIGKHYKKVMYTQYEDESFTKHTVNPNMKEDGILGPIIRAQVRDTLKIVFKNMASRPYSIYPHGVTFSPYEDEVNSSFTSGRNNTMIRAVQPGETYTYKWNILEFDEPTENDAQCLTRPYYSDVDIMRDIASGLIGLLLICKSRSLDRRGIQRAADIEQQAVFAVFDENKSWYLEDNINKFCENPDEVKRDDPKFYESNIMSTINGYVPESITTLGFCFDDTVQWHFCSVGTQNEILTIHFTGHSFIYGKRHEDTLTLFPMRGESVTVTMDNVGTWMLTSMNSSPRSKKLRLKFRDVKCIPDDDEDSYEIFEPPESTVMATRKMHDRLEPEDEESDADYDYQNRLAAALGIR
factor Xa assembled in the prothrombinase complex (Factor Xa, Factor Va, calcium and phospholipid), sequence (P12259 1574-2224 partner limits assumed): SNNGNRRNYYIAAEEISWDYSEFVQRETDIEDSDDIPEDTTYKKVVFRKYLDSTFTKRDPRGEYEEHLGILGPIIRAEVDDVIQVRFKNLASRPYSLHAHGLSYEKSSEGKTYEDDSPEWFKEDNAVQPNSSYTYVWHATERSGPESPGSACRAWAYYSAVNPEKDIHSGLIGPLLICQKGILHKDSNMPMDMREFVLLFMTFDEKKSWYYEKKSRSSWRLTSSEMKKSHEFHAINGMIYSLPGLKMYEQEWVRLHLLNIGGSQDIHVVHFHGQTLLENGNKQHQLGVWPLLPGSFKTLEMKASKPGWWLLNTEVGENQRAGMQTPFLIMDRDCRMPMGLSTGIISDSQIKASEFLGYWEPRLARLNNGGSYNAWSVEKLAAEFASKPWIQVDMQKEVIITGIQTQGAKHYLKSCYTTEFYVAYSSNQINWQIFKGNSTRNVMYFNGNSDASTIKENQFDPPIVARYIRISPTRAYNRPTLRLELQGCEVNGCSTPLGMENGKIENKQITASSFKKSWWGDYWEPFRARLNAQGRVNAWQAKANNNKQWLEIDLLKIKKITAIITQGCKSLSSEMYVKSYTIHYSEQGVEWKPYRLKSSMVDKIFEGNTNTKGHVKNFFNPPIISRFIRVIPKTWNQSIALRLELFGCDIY

COC(=O)C(Cc1cccc(C(=N)N)c1)[C@@H](C)NC(=O)c1ccc(-c2cc[n+]([O-])cc2)cc1 (mixture of isomers) [Otamixaban, (2R,3R)-2-(3-Carbamimidoyl-benzyl)-3-[4-(1-oxy-pyridin-4-yl)benzoylamino]-butyric acid methyl ester]
factor Xa inhibition in patients (factor Xa): dose-dependent, rapid direct factor Xa inhibition | inhibition of free factor Xa (free factor Xa): inhibited | reduction of prothrombin fragments 1+2 versus unfractionated heparin [1]: significantly more than unfractionated heparin | inhibition of factor Xa assembled in the prothrombinase complex [2]: inhibited | efficacy in model of thrombosis (thrombosis [3]): highly efficacious | efficacy in model of thrombosis (thrombosis [4]): highly efficacious | efficacy in model of thrombosis (thrombosis [5]): highly efficacious
